Data reported in the supplement of paper PMC10307832.

Tests used:
Assay in all cases: relative viability (nuclei count vs DMSO), 5 days (fraction); higher = more cells survive
Seliciclib + Lapatinib = compound: CC[C@H](CO)Nc1nc(NCc2ccccc2)c2ncn(C(C)C)c2n1 [Seliciclib] + CS(=O)(=O)CCNCc1ccc(-c2ccc3ncnc(Nc4ccc(OCc5cccc(F)c5)c(Cl)c4)c3c2)o1 [Lapatinib] (partner 2 µM)
In short: (§1)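 Relative viability equals treated-well nuclei counts divided by vehicle-well nuclei counts. Counts came from 4× images of lung cancer cell lines grown in 1536-well plates for 5 days after pin-tool dosing on the day after seeding. Dosing used one drug alone or a fixed anchor-drug dose plus five library-drug doses (not always all listed) in √10 steps, and values are medians of duplicate plates.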

Seliciclib + Crizotinib = compound: CC[C@H](CO)Nc1nc(NCc2ccccc2)c2ncn(C(C)C)c2n1 [Seliciclib] + C[C@@H](Oc1cc(-c2cnn(C3CCNCC3)c2)cnc1N)c1c(Cl)ccc(F)c1Cl [Crizotinib] (partner 1 µM)
In short: as §1

Seliciclib + Tozasertib = compound: CC[C@H](CO)Nc1nc(NCc2ccccc2)c2ncn(C(C)C)c2n1 [Seliciclib] + Cc1cc(Nc2cc(N3CCN(C)CC3)nc(Sc3ccc(NC(=O)C4CC4)cc3)n2)n[nH]1 [Tozasertib] (partner 0.1 µM)
In short: as §1

Seliciclib + Decitabine = compound: CC[C@H](CO)Nc1nc(NCc2ccccc2)c2ncn(C(C)C)c2n1 [Seliciclib] + Nc1ncn([C@H]2C[C@H](O)[C@@H](CO)O2)c(=O)n1 [Decitabine] (partner 2 µM)
In short: as §1

Cell Line	relative viability (Seliciclib + Lapatinib; first compound 0.08 µM)	relative viability (Seliciclib + Lapatinib; first compound 0.253 µM)	relative viability (Seliciclib + Lapatinib; first compound 0.8 µM)	relative viability (Seliciclib + Lapatinib; first compound 2.53 µM)	relative viability (Seliciclib + Lapatinib; first compound 8 µM)	relative viability (Seliciclib + Crizotinib; first compound 0.08 µM)	relative viability (Seliciclib + Crizotinib; first compound 0.253 µM)	relative viability (Seliciclib + Crizotinib; first compound 0.8 µM)	relative viability (Seliciclib + Crizotinib; first compound 2.53 µM)	relative viability (Seliciclib + Crizotinib; first compound 8 µM)	relative viability (Seliciclib + Tozasertib; first compound 0.08 µM)	relative viability (Seliciclib + Tozasertib; first compound 0.253 µM)	relative viability (Seliciclib + Tozasertib; first compound 0.8 µM)	relative viability (Seliciclib + Tozasertib; first compound 2.53 µM)	relative viability (Seliciclib + Tozasertib; first compound 8 µM)	relative viability (Seliciclib + Decitabine; first compound 0.08 µM)	relative viability (Seliciclib + Decitabine; first compound 0.253 µM)	relative viability (Seliciclib + Decitabine; first compound 0.8 µM)	relative viability (Seliciclib + Decitabine; first compound 2.53 µM)	relative viability (Seliciclib + Decitabine; first compound 8 µM)
NCI-H2087	1.13	1.14	1.02	0.749	0.965	0.909	0.833	0.956	0.828	0.846	0.252	0.234	0.242	0.231	0.192	0.284	0.313	0.247	0.227	0.221
NCI-H2126	0.698	0.656	0.737	0.552	0.613	0.988	0.979	0.965	0.992	0.861	0.868	0.823	0.846	0.676	0.736	0.567	0.565	0.606	0.55	0.47
NCI-H2170	0.272	0.274	0.269	0.259	0.268	1.1	0.873	1.18	1.4	1.11	0.728	0.707	0.589	0.83	0.507	0.453		0.452	0.537	0.442
NCI-H2347	0.867	0.858	0.835	0.974	0.905	0.711	0.741	0.742	0.763	0.595	0.632	0.517	0.522	0.645	0.547	0.66	0.522	0.597	0.602	0.597
NCI-H2405	1.11	0.851	1.05	0.919	0.902	0.755	0.841	0.807	0.877	0.794	0.753	0.797	0.762	0.602	0.601	0.758	0.68	0.742	0.63	0.716
NCI-H3122	0.938	1.08	0.91	1.04	0.949	0.294	0.258	0.311	0.231	0.301	0.428	0.347	0.393	0.378	0.329	0.399	0.234	0.479	0.472	0.294
PC-3 [JPC-3]	0.455	0.52	0.418	0.421	0.445	0.998	0.994	0.95	0.921	0.861	0.883	0.837	0.871	0.88	0.708	0.819	0.883	0.906	0.809	0.767
PC-14	0.306	0.262	0.315	0.309	0.263	0.865	0.846	0.78	0.991	0.759	0.551	0.608	0.55	0.574	0.445	0.211	0.228	0.222	0.252	0.25
